This note sets out measurements from ChEMBL document CHEMBL2311538, “Discovery of a class of novel tankyrase inhibitors that bind to both the nicotinamide pocket and the induced pocket” (J Med Chem, 2013).

For orientation: IC50 means the point on the concentration scale where inhibition reaches its midpoint.

Assay [1] has as its target Poly [ADP-ribose] polymerase 2 (Homo sapiens, UniProt Q9UGN5). Put plainly: Inhibition of PARP2 (unknown origin).
For assay [2], the target named is T1, Poly [ADP-ribose] polymerase tankyrase-1 (Homo sapiens, UniProt O95271).
T1 sequence (O95271 whole entry): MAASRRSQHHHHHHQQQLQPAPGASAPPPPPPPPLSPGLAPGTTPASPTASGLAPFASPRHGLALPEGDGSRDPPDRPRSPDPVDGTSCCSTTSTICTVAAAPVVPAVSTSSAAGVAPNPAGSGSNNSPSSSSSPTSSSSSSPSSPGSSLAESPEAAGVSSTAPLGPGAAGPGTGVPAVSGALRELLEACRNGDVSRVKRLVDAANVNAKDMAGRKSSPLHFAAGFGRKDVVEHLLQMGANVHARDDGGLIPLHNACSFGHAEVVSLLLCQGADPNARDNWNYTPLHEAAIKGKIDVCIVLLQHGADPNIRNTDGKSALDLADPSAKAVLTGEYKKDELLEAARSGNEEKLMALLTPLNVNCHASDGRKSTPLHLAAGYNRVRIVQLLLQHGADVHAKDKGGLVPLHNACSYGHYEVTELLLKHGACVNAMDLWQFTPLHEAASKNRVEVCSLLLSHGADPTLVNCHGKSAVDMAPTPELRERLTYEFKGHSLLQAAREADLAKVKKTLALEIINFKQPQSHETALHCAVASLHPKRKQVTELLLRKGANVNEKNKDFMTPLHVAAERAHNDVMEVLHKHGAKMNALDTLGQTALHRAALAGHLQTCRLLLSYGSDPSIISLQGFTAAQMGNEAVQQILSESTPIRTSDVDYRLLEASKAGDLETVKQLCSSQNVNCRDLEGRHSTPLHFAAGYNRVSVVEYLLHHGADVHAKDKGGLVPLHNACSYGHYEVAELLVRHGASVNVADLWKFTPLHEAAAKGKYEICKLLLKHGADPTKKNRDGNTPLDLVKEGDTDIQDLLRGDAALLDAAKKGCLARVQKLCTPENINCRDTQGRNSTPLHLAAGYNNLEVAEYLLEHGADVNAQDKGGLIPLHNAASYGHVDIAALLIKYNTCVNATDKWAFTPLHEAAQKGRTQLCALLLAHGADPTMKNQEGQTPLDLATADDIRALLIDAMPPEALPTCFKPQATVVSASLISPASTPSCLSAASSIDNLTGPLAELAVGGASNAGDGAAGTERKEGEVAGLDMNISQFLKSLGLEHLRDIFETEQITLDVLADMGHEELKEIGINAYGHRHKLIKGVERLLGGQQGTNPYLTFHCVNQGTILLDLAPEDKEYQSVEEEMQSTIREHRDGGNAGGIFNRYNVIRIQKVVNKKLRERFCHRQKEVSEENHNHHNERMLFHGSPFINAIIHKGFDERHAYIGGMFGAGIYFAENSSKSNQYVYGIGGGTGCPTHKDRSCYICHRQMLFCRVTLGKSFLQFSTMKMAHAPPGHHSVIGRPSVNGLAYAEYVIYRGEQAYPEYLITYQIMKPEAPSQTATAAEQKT

Assay [3] concerns the target T2, Poly [ADP-ribose] polymerase tankyrase-2 (Homo sapiens, UniProt Q9H2K2).
T2 sequence (Q9H2K2 whole entry): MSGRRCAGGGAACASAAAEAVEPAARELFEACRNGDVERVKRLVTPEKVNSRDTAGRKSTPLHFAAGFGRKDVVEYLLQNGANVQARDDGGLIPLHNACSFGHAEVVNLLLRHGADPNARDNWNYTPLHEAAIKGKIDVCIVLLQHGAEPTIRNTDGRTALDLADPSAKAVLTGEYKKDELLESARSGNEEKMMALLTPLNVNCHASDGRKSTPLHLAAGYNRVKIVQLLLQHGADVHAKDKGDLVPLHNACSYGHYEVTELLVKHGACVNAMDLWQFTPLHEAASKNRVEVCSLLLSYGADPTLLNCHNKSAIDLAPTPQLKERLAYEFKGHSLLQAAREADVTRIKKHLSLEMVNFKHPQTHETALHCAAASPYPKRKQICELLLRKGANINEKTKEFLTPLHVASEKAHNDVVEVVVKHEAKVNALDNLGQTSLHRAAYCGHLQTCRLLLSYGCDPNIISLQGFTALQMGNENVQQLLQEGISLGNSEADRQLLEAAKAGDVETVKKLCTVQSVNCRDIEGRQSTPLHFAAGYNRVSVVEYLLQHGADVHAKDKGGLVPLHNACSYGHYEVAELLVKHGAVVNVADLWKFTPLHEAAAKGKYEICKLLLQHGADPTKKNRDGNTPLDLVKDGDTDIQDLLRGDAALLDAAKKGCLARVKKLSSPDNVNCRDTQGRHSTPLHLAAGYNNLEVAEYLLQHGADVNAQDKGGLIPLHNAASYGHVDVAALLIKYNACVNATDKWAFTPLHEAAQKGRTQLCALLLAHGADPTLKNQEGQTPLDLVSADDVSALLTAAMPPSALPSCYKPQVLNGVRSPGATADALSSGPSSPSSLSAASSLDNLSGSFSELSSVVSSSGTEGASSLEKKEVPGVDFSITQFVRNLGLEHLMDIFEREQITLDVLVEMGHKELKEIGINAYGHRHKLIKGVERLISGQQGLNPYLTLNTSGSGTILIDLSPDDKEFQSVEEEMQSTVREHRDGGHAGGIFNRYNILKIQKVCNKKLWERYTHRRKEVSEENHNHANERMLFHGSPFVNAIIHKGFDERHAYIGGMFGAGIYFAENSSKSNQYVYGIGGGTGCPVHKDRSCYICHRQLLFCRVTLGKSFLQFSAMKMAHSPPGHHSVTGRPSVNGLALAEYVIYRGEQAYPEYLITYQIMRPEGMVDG
In words: Inhibition of N-terminal His6-tagged human TNKS2 (946 to 1162 amino acid residues) after 60 mins by autoparsylation assay.

The next assay deals with T3, Tankyrase 1/2 (Homo sapiens, UniProt Q9H2K2+O95271).
T3 sequence (Q9H2K2 whole entry): T2 sequence (Q9H2K2 whole entry)
T3 sequence (O95271 whole entry): T1 sequence (O95271 whole entry)
The settings on record: hek293.

Poly [ADP-ribose] polymerase 2, sequence (Q9UGN5 whole entry): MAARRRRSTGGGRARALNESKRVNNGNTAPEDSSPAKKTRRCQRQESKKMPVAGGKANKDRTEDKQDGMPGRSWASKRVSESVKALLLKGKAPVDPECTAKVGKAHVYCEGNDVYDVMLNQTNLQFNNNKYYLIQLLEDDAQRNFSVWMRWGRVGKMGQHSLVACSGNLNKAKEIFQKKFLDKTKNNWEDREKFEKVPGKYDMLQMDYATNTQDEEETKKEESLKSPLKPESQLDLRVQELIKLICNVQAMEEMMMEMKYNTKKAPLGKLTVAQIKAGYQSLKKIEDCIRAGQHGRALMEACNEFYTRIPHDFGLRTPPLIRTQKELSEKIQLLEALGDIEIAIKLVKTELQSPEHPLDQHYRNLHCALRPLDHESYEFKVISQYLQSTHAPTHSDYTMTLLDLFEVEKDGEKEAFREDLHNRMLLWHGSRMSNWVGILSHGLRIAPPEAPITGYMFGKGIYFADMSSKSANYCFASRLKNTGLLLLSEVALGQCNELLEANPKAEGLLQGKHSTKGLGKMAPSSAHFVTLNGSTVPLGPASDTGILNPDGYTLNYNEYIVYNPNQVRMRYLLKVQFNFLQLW

For the compound `COc1ccccc1NC(=O)c1ccc(NC(=O)CCc2nc3ccccc3c(=O)[nH]2)cc1`, the IC50 in assay [1] came to 931 nM; in assay [2] it was 8 nM.

In the case of `Cc1ccnc2c(NC(=O)c3ccc(N4C(=O)[C@@H]5[C@H](C4=O)[C@@H]4C=C[C@H]5C4)cc3)cccc12`, the results for the IC50 (in assay [3]; in assay [2]; against Tankyrase 1/2) were 36 nM, 192 nM and 163000 nM, respectively.
